According to US10363257B2 (ZENITH EPIGENETICS LTD., priority 2013, dated 2019):

How the values were obtained:
hIL-6 mRNA = assay: Inhibition of hIL-6 mRNA transcription in LPS-stimulated U937 cells; assay type: cell-based; conditions: Homo sapiens, U-937; PMA-differentiated U937 cells, 1 h pretreatment, 1 ug/mL LPS stimulation, 3 h; read-out: IL-6 activity (Inhibition of hIL-6 mRNA Transcription)
Outline: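 U937 cells differentiated 3 days with 60 ng/mL PMA, pretreated 1 h with compound (0.1% DMSO), then stimulated with 1 ug/mL E. coli LPS for 3 h at 37 °C. hIL-6 mRNA measured by one-step TaqMan RT-qPCR, normalized to cyclophilin. Fold expression relative to control; triplicate wells.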

c-myc = assay: Inhibition of c-myc expression (mRNA, real-time PCR) in MV4-11 cells; assay type: cell-based; conditions: Human AML MV4-11 cells, 3 h, cMYC mRNA
Outline: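 One-step TaqMan qPCR of cMYC, normalized to an internal control with Cyclophilin probes run, gave fold expression versus DMSO (0.1%) control. Samples: triplicate MV4-11 wells exposed 3 h at 37° C to rising compound concentrations in IMDM with 10% FBS.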

hIL-17 mRNA = assay: Inhibition of hIL-17 mRNA transcription in OKT3-stimulated peripheral blood mononuclear cells; assay type: cell-based; conditions: PBMC, human peripheral blood mononuclear cells, OKT3 antibody, 6 h, read-out: IL-17 activity
Protocol: In this example, hIL-17 mRNA in human peripheral blood mononuclear cells was quantitated to measure the transcriptional inhibition of hIL-17 when treated with a compound of the invention.
Human peripheral blood mononuclear cells were plated (2.0×10^5 cells per well) in a 96-well plate in 45 μL OpTimizer T Cell expansion media containing 20 ng/ml IL-2 and penicillin/streptomycin. The cells were treated with the test compound (45 μL at 2× concentration), and then the cells were incubated at 37° C. for 1 h before addition of 10× stock OKT3 antibody at 10 μg/ml in media. Cells were incubated at 37° C. for 6 h before the cells were harvested. At time of harvest, cells were centrifuged (800 rpm, 5 min). Spent media was removed and cell lysis solution (70 μL) was added to the cells in each well and incubated for 5-10 min at room temperature, to allow for complete cell lysis and detachment. mRNA was then prepared using the “mRNA Catcher PLUS plate” (Invitrogen), according to the protocol supplied. After the last wash, as much wash buffer as possible was aspirated without allowing the wells to dry. Elution buffer (E3, 70 μL) was then added to each well. mRNA was then eluted by incubating the mRNA Catcher PLUS plate with Elution Buffer for 5 min at 68° C. and then immediately placing the plate on ice.
The eluted mRNA isolated was then used in a one-step quantitative RT-PCR reaction, using components of the Ultra Sense Kit together with Applied Biosystems primer-probe mixes. Real-time PCR data was analyzed, normalizing the Ct values for hIL-17 to an internal control, prior to determining the fold induction of each unknown sample, relative to the control.

human AML MV-4-11 cells = assay: Inhibition of cell proliferation in MV4-11 cells (CellTiter Aqueous One); assay type: cell-based; conditions: for IC50: MV4-11, 72 h; for Cell Proliferation activity: 72 h
Outline: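 IC50 values come from blank-corrected proliferation relative to DMSO controls, read as 490 nm absorbance 3–4 h after CellTiter Aqueous One addition. Before that, cells seeded at 5×10^4/well were exposed for 72 h (37° C, 5% CO2) to triplicate two-fold compound dilutions spanning 30–0.2 μM.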

[1] = biological target: T1, Brd4 bromodomain 1 (BRD4(1)) (Homo sapiens, UniProt O60885); assay: Inhibition of tetra-acetylated histone H4 binding to Brd4 bromodomain 1 (TR-FRET); conditions: tetra-acetylated histone H4 peptide, first bromodomain of Brd4
T1 construct: made in house; host or cells: E. coli BL21(DE3)
Outline: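 Serially diluted compound (0.2% DMSO) incubated 2 h at room temperature with 200 nM N-His BRD4 bromodomain 1 and 25-50 nM biotinylated tetra-acetyl H4 peptide, detected via Eu-streptavidin/XL665 anti-His. Loss of 665 nm relative to 620 nm signal gave IC50 from dose-response.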

| IC50 (hIL-6 mRNA) | IC50 (c-myc) | IC50 (hIL-17 mRNA) | IC50 (human AML MV-4-11 cells) | IC50 [1] | Compound | Cell Proliferation activity (human AML MV-4-11 cells) |
| --- | --- | --- | --- | --- | --- | --- |
| 300 to 3000 nM | 300 to 3000 nM | 300 to 3000 nM | 300 to 3000 nM | ≤ 300 nM | Cc1noc(C)c1-c1cnc2ncn(Cc3ccccc3)c2c1 [Example Compound 5, 4-(1-Benzyl-1H-imidazo[4,5-b]pyridin-6-yl)-3,5-dimethylisoxazole] |  |
| 300 to 3000 nM | 300 to 3000 nM | 300 to 3000 nM | 300 to 3000 nM | ≤ 300 nM | Cc1noc(C)c1-c1cc(N)c2c(c1)ncn2Cc1ccccc1 [Example Compound 8, 1-Benzyl-5-(3,5-dimethylisoxazol-4-yl)-1H-benzo[d]imidazol-7-amine] |  |
| 300 to 3000 nM |  | 3000 to 30000 nM |  | ≤ 300 nM | Cc1noc(C)c1-c1cnc2c(C)nn(Cc3ccc(F)cc3)c2c1 [Example Compound 53, 4-(1-(4-fluorobenzyl)-3-methyl-1H-pyrazolo[4,3-b]pyridin-6-yl)-3,5-dimethylisoxazole] | Not active |
| ≤ 300 nM | 300 to 3000 nM |  | 300 to 3000 nM | ≤ 300 nM | Cc1noc(C)c1-c1cc([N+](=O)[O-])c2nc(NCc3cccnc3)n(Cc3ccccc3)c2c1 [compound 148, 1-benzyl-6-(3,5-dimethylisoxazol-4-yl)-4-nitro-N-(pyridin-3-ylmethyl)-1H-benzo[d]imidazol-2-amine] |  |
| ≤ 300 nM | ≤ 300 nM |  | 300 to 3000 nM | ≤ 300 nM | CNc1nc2c([N+](=O)[O-])cc(-c3c(C)noc3C)cc2n1Cc1ccccc1 [compound 149, 1-benzyl-6-(3,5-dimethylisoxazol-4-yl)-N-methyl-4-nitro-1H-benzo[d]imidazol-2-amine] |  |
| ≤ 300 nM | ≤ 300 nM |  | ≤ 300 nM | ≤ 300 nM | CNc1nc2c(N)cc(-c3c(C)noc3C)cc2n1Cc1ccccc1 [compound 151, 1-benzyl-6-(3,5-dimethylisoxazol-4-yl)-N2-methyl-1H-benzo[d]imidazole-2,4-diamine] |  |
| ≤ 300 nM | ≤ 300 nM |  | 300 to 3000 nM | ≤ 300 nM | Cc1noc(C)c1-c1cc(N)c2nc(NCc3ccccc3)n(Cc3ccccc3)c2c1 [compound 152, N2,1-dibenzyl-6-(3,5-dimethylisoxazol-4-yl)-1H-benzo[d]imidazole-2,4-diamine] |  |
| ≤ 300 nM | ≤ 300 nM |  | ≤ 300 nM | ≤ 300 nM | Cc1noc(C)c1-c1cnc2nc(NCc3ccccc3)n(Cc3ccccc3)c2c1 [compound 153, N,1-dibenzyl-6-(3,5-dimethylisoxazol-4-yl)-1H-imidazo[4,5-b]pyridin-2-amine] |  |
| 300 to 3000 nM | 3000 to 30000 nM |  |  | ≤ 300 nM | Cc1noc(C)c1Nc1cnc2nc(C)n(Cc3ccccc3)c2c1 [compound 155, N-(1-benzyl-2-methyl-1H-imidazo[4,5-b]pyridin-6-yl)-3,5-dimethylisoxazol-4-amine] | Not active |
| 300 to 3000 nM | 300 to 3000 nM |  | 300 to 3000 nM | ≤ 300 nM | Cc1noc(C)c1-c1ccc2c(c1)N(Cc1ccccc1)CC(=O)N2 [compound 156, 4-benzyl-6-(3,5-dimethylisoxazol-4-yl)-3,4-dihydroquinoxalin-2(1H)-one] |  |
| ≤ 300 nM | ≤ 300 nM |  | ≤ 300 nM | ≤ 300 nM | Cc1noc(C)c1-c1cc(N)c2nc(NCc3cccnc3)n(Cc3ccccc3)c2c1 [compound 157, 1-benzyl-6-(3,5-dimethylisoxazol-4-yl)-N2-(pyridin-3-ylmethyl)-1H-benzo[d]imidazole-2,4-diamine] |  |
| 300 to 3000 nM | 300 to 3000 nM |  | 300 to 3000 nM | ≤ 300 nM | Cc1noc(C)c1-c1cc(F)c2nc(C)n(Cc3ccccc3)c2c1 [compound 158, 4-(1-benzyl-4-fluoro-2-methyl-1H-benzo[d]imidazol-6-yl)-3,5-dimethylisoxazole] |  |
| ≤ 300 nM | ≤ 300 nM |  | 300 to 3000 nM | ≤ 300 nM | Cc1noc(C)c1-c1cnc2nc(N3CCOCC3)n(CC3CCCC3)c2c1 [compound 208, 4-(1-(cyclopentylmethyl)-6-(3,5-dimethylisoxazol-4-yl)-1H-imidazo[4,5-b]pyridin-2-yl)morpholine] |  |
| ≤ 300 nM | 300 to 3000 nM |  | ≤ 300 nM | ≤ 300 nM | Cc1noc(C)c1-c1cnc2nc(N3CCC3)n(CC3CCCC3)c2c1 [compound 209, 4-(2-(azetidin-1-yl)-1-(cyclopentylmethyl)-1H-imidazo[4,5-b]pyridin-6-yl)-3,5-dimethylisoxazole] |  |
| ≤ 300 nM | 300 to 3000 nM |  | ≤ 300 nM | ≤ 300 nM | Cc1noc(C)c1-c1cnc2nc(N3CCC3)n(CC3CCC3)c2c1 [compound 211, 4-(2-(azetidin-1-yl)-1-(cyclobutylmethyl)-1H-imidazo[4,5-b]pyridin-6-yl)-3,5-dimethylisoxazole] |  |
| ≤ 300 nM | ≤ 300 nM |  | ≤ 300 nM | ≤ 300 nM | Cc1noc(C)c1-c1cnc2nc(NC3CCCC3)n(Cc3ccccc3)c2c1 [compound 214, 1-benzyl-N-cyclopentyl-6-(3,5-dimethylisoxazol-4-yl)-1H-imidazo[4,5-b]pyridin-2-amine] |  |
| ≤ 300 nM | ≤ 300 nM |  | 300 to 3000 nM | ≤ 300 nM | Cc1noc(C)c1-c1cnc2nc(NCCN3CCOCC3)n(Cc3ccccc3)c2c1 [compound 215, 1-benzyl-6-(3,5-dimethylisoxazol-4-yl)-N-(2-morpholinoethyl)-1H-imidazo[4,5-b]pyridin-2-amine] |  |
| ≤ 300 nM | 300 to 3000 nM |  | ≤ 300 nM | ≤ 300 nM | Cc1noc(C)c1-c1cnc2nc(N)n(Cc3ccccc3)c2c1 [compound 216, 1-benzyl-6-(3,5-dimethylisoxazol-4-yl)-1H-imidazo[4,5-b]pyridin-2-amine] |  |
| ≤ 300 nM | ≤ 300 nM |  | 300 to 3000 nM | ≤ 300 nM | Cc1noc(C)c1-c1cnc2nc(NCc3cccc(C#N)c3)n(Cc3ccccc3)c2c1 [compound 217, 3-(((1-benzyl-6-(3,5-dimethylisoxazol-4-yl)-1H-imidazo[4,5-b]pyridin-2-yl)amino)methyl)benzonitrile] |  |
| 300 to 3000 nM | 300 to 3000 nM |  | 3000 to 30000 nM | ≤ 300 nM | Cc1noc(C)c1-c1cnc2[nH]c(=O)n([C@H](C)c3ccccc3)c2c1 [compound 218, (R)-6-(3,5-dimethylisoxazol-4-yl)-1-(1-phenylethyl)-1H-imidazo[4,5-b]pyridin-2(3H)-one] |  |
| 300 to 3000 nM | 3000 to 30000 nM |  | 300 to 3000 nM | ≤ 300 nM | Cc1noc(C)c1-c1cnc2nc(C3CCOCC3)n(Cc3ccccc3)c2c1 [compound 220, 4-(1-benzyl-2-(tetrahydro-2H-pyran-4-yl)-1H-imidazo[4,5-b]pyridin-6-yl)-3,5-dimethylisoxazole] |  |
| 300 to 3000 nM | 300 to 3000 nM |  | 300 to 3000 nM | ≤ 300 nM | CNC(=O)c1nc2ncc(-c3c(C)noc3C)cc2n1Cc1ccccc1 [compound 221, 1-benzyl-6-(3,5-dimethylisoxazol-4-yl)-N-methyl-1H-imidazo[4,5-b]pyridine-2-carboxamide] |  |
| 300 to 3000 nM | ≤ 300 nM |  | 300 to 3000 nM | ≤ 300 nM | Cc1noc(C)c1-c1cnc2nc(NC3CCOCC3)n(CC3CCC3)c2c1 [compound 223, 1-(cyclobutylmethyl)-6-(3,5-dimethylisoxazol-4-yl)-N-(tetrahydro-2H-pyran-4-yl)-1H-imidazo[4,5-b]pyridin-2-amine] |  |
